The assay concerns the target HPK full length, T165E S171E (Homo sapiens (Human), UniProt Q92918, S171E/T165E). Briefly: HPK1-FL HTRF enzymatic assay ("HTRF"). It counts as biochemical. To be noted: ATP 1 mM, read-out: HPK1 Ki. The method, then:
Assay Principle: HPK-FL enzyme phosphorylates Biotin-SLP-76 substrate in the presence of ATP at […] and varying concentrations of test compound. Product is detected by FRET using Eu-anti-pSLP76 Ab and SA-XL665. Also see www.cisbio.com/HTRF for additional HTRF technology information.
Instrumentation: Echo555 compound dispenser; Agilent Bravo; Perkin Elmer Envision.
To a 384 well Proxiplate with 80 nL compound or DMSO spotted on was added 4 μl/well kinase mix. The mixture was preincubated for 30 minutes and then 4 μl/well substrate mix was added. The solution was incubated for 60 min and then 4 μl/well detection mix was added. The solution was incubated for another 60 min.
Exemplary compounds were tested in the HTRF binding assays.

Each structure is given as a SMILES string. Where a name gives a salt, the structure may show the parent alone. A value given as a limit tells only on which side of the number the result lay.

In general, Ki refers to the equilibrium dissociation constant of an inhibitor or competing ligand from its target.

Chain of HPK full length, T165E S171E (Q92918 whole entry T165E/S171E, looked up): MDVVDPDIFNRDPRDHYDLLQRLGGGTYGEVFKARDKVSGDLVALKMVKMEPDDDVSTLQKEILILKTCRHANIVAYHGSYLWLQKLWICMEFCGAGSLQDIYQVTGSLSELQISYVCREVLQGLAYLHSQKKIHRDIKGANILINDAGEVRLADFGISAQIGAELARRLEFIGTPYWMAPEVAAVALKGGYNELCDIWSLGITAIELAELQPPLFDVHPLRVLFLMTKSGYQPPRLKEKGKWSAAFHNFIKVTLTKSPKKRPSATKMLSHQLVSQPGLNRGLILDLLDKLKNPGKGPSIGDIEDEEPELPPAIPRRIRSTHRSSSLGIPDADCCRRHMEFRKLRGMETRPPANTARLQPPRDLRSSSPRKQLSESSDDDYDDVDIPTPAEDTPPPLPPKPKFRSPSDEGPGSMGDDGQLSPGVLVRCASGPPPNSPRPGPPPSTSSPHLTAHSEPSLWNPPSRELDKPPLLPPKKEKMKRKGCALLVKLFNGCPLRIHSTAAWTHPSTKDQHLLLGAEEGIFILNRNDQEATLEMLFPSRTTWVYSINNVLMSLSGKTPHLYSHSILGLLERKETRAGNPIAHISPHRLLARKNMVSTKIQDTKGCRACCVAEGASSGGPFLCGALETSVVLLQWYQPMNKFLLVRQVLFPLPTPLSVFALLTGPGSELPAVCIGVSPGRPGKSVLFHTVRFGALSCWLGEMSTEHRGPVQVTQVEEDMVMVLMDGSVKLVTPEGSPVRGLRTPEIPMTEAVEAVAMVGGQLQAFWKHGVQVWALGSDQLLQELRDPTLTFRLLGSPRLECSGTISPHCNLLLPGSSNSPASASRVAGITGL

Regarding `Cc1c(-c2cc3cc(NC(=O)O[C@H]4C[C@](C)(O)C4)ncc3c(N)c2F)cnc2c1NCCO2` [Compound 486b, (1r,3r)-3-Hydroxy-3-methylcyclobutyl (8-amino-7-fluoro-6-(8-methyl-2,3-dihydro-1H-pyrido[2,3-b][1,4]oxazin-7-yl)isoquinolin-3-yl)carbamate], the Ki was 18 pM.

`Cc1c(-c2cc3cc(NC(=O)N[C@H]4CCC[C@H]4O)ncc3c(N)c2F)cnc2c1NCCO2` (relative stereo) [Compound 728a, 1-[8-Amino-7-fluoro-6-(8-methyl-2,3-dihydro-1H-pyrido[2,3-b][1,4]oxazin-7-yl)-3-isoquinolyl]-3-[(1S,2R)-2-hydroxycyclopentyl]urea]: the Ki was less than 13 pM.

For the molecule `Cc1c(-c2cc3cc(NC(=O)OC4CCN(C)CC4)ncc3c(N)c2F)cnc2c1NCCO2` [Compound 407, 1-Methylpiperidin-4-yl (8-amino-7-fluoro-6-(8-methyl-2,3-dihydro-1H-pyrido[2,3-b][1,4]oxazin-7-yl)isoquinolin-3-yl)carbamate], the Ki stood at 30 pM.

On to `Cc1c(-c2cc3cc(NC(=O)OC4CCN(C5COC5)CC4)ncc3c(N)c2F)cnc2c1NCCO2` [Compound 421, 1-(Oxetan-3-yl)piperidin-4-yl (8-amino-7-fluoro-6-(8-methyl-2,3-dihydro-1H-pyrido[2,3-b][1,4]oxazin-7-yl)isoquinolin-3-yl)carbamate], for which the Ki is less than 13 pM.

For `Cc1c(-c2cc3cc(NC(=O)N[C@H]4[C@@H]5COC[C@@H]54)ncc3c(N)c2F)cnc2c1NCCO2` [Compound 713a, 1-(8-Amino-7-fluoro-6-(8-methyl-2,3-dihydro-1H-pyrido[2,3-b][1,4]oxazin-7-yl)isoquinolin-3-yl)-3-((1R,5S,6r)-3-oxabicyclo[3.1.0]hexan-6-yl)urea], the Ki is less than 13 pM.

As for `Cc1c(-c2cc3cc(NC(=O)OC4C5COCC4CN(C4COC4)C5)ncc3c(N)c2F)cnc2c1NCCO2` [Compound 575a, (1R,5S,9s)-7-(Oxetan-3-yl)-3-oxa-7-azabicyclo[3.3.1]nonan-9-yl (8-amino-7-fluoro-6-(8-methyl-2,3-dihydro-1H-pyrido[2,3-b][1,4]oxazin-7-yl)isoquinolin-3-yl)carbamate], the Ki is less than 13 pM.

Consider `Cc1c(-c2cc3cc(NC(=O)NC4CC5(C4)CN(CC(F)(F)F)C5)ncc3c(N)c2F)cnc2c1NCCO2` [Compound 708, 1-(8-Amino-7-fluoro-6-(8-methyl-2,3-dihydro-1H-pyrido[2,3-b][1,4]oxazin-7-yl)isoquinolin-3-yl)-3-(2-(2,2,2-trifluoroethyl)-2-azaspiro[3.3]heptan-6-yl)urea], for which the inhibition constant (Ki) was less than 13 pM.

For the molecule `Cc1c(-c2cc3cc(NC(=O)O[C@H]4C[C@H](O)C4)ncc3c(N)c2F)cnc2c1NCCO2` [Compound 485b, (1r,3r)-3-Hydroxycyclobutyl (8-amino-7-fluoro-6-(8-methyl-2,3-dihydro-1H-pyrido[2,3-b][1,4]oxazin-7-yl)isoquinolin-3-yl)carbamate], the Ki was less than 13 pM.

`Cc1c(-c2cc3cc(NC(=O)N[C@H]4C[C@H](F)C4)ncc3c(N)c2F)cnc2c1NCCO2` [Compound 748b, 1-(8-Amino-7-fluoro-6-(8-methyl-2,3-dihydro-1H-pyrido[2,3-b][1,4]oxazin-7-yl)isoquinolin-3-yl)-3-((1r,3r)-3-fluorocyclobutyl)urea]: the Ki amounted to 18 pM.

As for `CO[C@@H]1CCC[C@@H]1NC(=O)Nc1cc2cc(-c3cnc4c(c3C)NCCO4)c(F)c(N)c2cn1` (single isomer, unassigned) [Compound 729a], the Ki worked out at 1370 pM.

Take `Cc1c(-c2cc3cc(NC(=O)N(C)C4CCC4)ncc3c(N)c2F)cnc2c1NCCO2` [Compound 752, 3-(8-Amino-7-fluoro-6-(8-methyl-2,3-dihydro-1H-pyrido[2,3-b][1,4]oxazin-7-yl)isoquinolin-3-yl)-1-cyclobutyl-1-methylurea]: the Ki came to 520 pM.

As for `Cc1c(-c2cc3cc(NC(=O)O[C@H]4CCNC4)ncc3c(N)c2F)cnc2c1NCCO2` (single isomer, unassigned) [Compound 405b], the Ki stood at 158 pM.

Consider `Cc1c(-c2cc3cc(NC(=O)O[C@@H]4CCCNC4)ncc3c(N)c2F)cnc2c1NCCO2` (single isomer, unassigned) [Compound 408b], for which the inhibition constant (Ki) was found to be 69 pM.

Regarding `Cc1c(-c2cc3cc(NC(=O)OC4C5COCC4CN(C)C5)ncc3c(N)c2F)cnc2c1NCCO2` (single isomer, unassigned) [Compound 439b], the inhibition constant (Ki) was 480 pM.

Regarding `Cc1c(-c2cc3cc(NC(=O)N[C@H]4C[C@@]5(CCOC5)C4)ncc3c(N)c2F)cnc2c1NCCC2` [Compound 740b, 1-(8-Amino-7-fluoro-6-(4-methyl-5,6,7,8-tetrahydro-1,5-naphthyridin-3-yl)isoquinolin-3-yl)-3-((2r,4r)-6-oxaspiro[3.4]octan-2-yl)urea], the Ki is less than 13 pM.

On to `Cc1c(-c2cc3cc(NC(=O)N[C@@H]4CC[C@H](C#N)C4)ncc3c(N)c2F)cnc2c1NCCO2` (single isomer, unassigned) [Compound 726a], for which the inhibition constant (Ki) is less than 13 pM.

For the molecule `Cc1c(-c2cc3cc(NC(=O)NC4CC5(C4)CN(CC(F)F)C5)ncc3c(N)c2F)cnc2c1NCCC2` [Compound 739, 1-(8-Amino-7-fluoro-6-(4-methyl-5,6,7,8-tetrahydro-1,5-naphthyridin-3-yl)isoquinolin-3-yl)-3-(2-(2,2-difluoroethyl)-2-azaspiro[3.3]heptan-6-yl)urea], the Ki is less than 13 pM.

As to `CO[C@H]1C[C@H](OC(=O)Nc2cc3cc(-c4cnc5c(c4C)NCCO5)c(F)c(N)c3cn2)C1` [Compound 576a, (1r, 3r)-3-Methoxycyclobutyl (8-amino-7-fluoro-6-(8-methyl-2,3-dihydro-1H-pyrido[2,3-b][1,4]oxazin-7-yl)isoquinolin-3-yl)carbamate], the Ki is less than 13 pM.

For the molecule `Cc1c(-c2cc3cc(NC(=O)N4CC5(CCOCC5)C4)ncc3c(N)c2F)cnc2c1NCCO2` [Compound 753, N-(8-Amino-7-fluoro-6-(8-methyl-2,3-dihydro-1H-pyrido[2,3-b][1,4]oxazin-7-yl)isoquinolin-3-yl)-7-oxa-2-azaspiro[3.5]nonane-2-carboxamide], the Ki was 39 pM.

As to `Cc1c(-c2cc3cc(NC(=O)O[C@H]4C[C@@H]([C@@H](C)O)C4)ncc3c(N)c2F)cnc2c1NCCO2` (single isomer, unassigned) [Compound 573d], the Ki was less than 13 pM.

As for `Cc1c(-c2cc3cc(NC(=O)O[C@H]4CC[C@@](C)(O)C4)ncc3c(N)c2F)cnc2c1NCCO2` (single isomer, unassigned) [Compound 533c, hydrochloride], the inhibition constant Ki is 14 pM.

For `Cc1c(-c2cc3cc(NC(=O)OC4CCOCC4)ncc3c(N)c2F)cnc2c1NCC[C@H]2C` (single isomer, unassigned) [Compound 461a], the Ki was determined as 891 pM.

For the molecule `Cc1c(-c2cc3cc(NC(=O)N[C@H]4CCOC4)ncc3c(N)c2F)cnc2c1NCCO2` (single isomer, unassigned) [Compound 722b], the Ki is less than 13 pM.

In the case of `Cc1c(-c2cc3cc(NC(=O)O[C@]4(C)C[C@H](O)C4)ncc3c(N)c2F)cnc2c1NCCO2` [Compound 554a, (1s,3s)-3-Hydroxy-1-methylcyclobutyl (8-amino-7-fluoro-6-(8-methyl-2,3-dihydro-1H-pyrido[2,3-b][1,4]oxazin-7-yl)isoquinolin-3-yl)carbamate], the Ki worked out at 253 pM.

Source of the values: patent US11612606B2, “8-aminoisoquinoline compounds and uses thereof” (priority 2018, dated 2023).
